# According to patent US10913732B2, “Furoxans as therapies for neurodegenerative disorders” (The University of Toledo, priority 2016, dated 2021):
# “Also recorded” adds a separate entry of the source.
# Key:
# [1] = In vivo pharmacokinetics, plasma and forebrain levels by LC-MS/MS; set-up: species or system mice
# Procedure: FIGS. 6A-6C: The ratio of the AUC of the MRM transition for 31b versus 41b was calculated and the resulting values were normalized based on total protein concentration of samples (determined by Bradford assay). N=4 per group. Data shown as SEM, analysis by one way ANOVA with Tukey's post-test. *=p<0.05. Half-life's were calculated based on first order exponential decay.
# 31b was administered to mice and specimens were processed according to FIG. 4A. Levels of 31b were determined in the plasma and forebrain after intraperitoneal (ip) and oral (po) administration at varying post-administration time points (1, 2, or 12 hr [N=4 per cohort]). […] A deuterated (d^4) analog of 31b, designated 41b, was synthesized for LC-MS studies. Deuterated internal standards are required for absolute quantitation via LC-MS/MS and are desirable for because they have identical physiochemical properties to their non-deuterated kin, but may be distinguished based on molecular weight. Inclusion of 41b allows for control of extraction efficiency, technique proficiency, and instrumentation sensitivity. Extraction methodology and tandem LC-MS/MS parameters (optimized MRM transitions) were developed and validated via extraction of blank brain tissue spiked with 31b and 41b to develop a calibration curve. In this initial evaluation, the appropriate forebrain and plasma samples were spiked with a fixed concentration of 41b, homogenized in extraction buffer, applied to a solid phase resin cartridge, eluted, concentrated, reconstituted, and analyzed via MRM monitoring using LC-MS/MS. […] There were no significant differences in levels of 31b in the brain (B) versus plasma (P), with an average B:P ratio of 1.6 (±0.8). […] Without wishing to be bound by theory, it is believed that low oral bioavailability of 31b is the result of rapid 1st pass metabolism, since the microsomal stability studies indicate poor hepatic stability. The use of common dosage form strategies likely results in improved oral bioavailability. Alternative administration routes, including intranasal, are also believed to result in high brain bioavailability based on the relativity high lipophilicity of the embodiments tested. […] Moreover, the physiochemical properties proposed as being appropriate for CNS drugs are appropriate. The long residence time of the furoxan (visible in the brain after 12 hr), indicates an ideal scenario for daily dosing.
# Forebrain tissue (˜30 mg) was homogenized in 1 ml of tissue extraction buffer (Invitrogen) containing a protease inhibitor cocktail (PIC). 100 μL of the resulting homogenate (or 100 μL of plasma) was spiked with 2% Formic acid (200 μL, containing 41b [0.5 μM]—internal standard) and vortexed for 1 min. The mixture was applied to an Evolute Express ABN column (Biotage) and filtered through via vacuum filtration. The matrix was washed with dH2O (1 mL) and analytes eluted with MeOH (1 mL). The resulting extract was evaporated to dryness by passing over air and reconstituted in ACN/dH2O (100 μL). A 10 μL injection was analyzed by LC-MS/MS. Analysis was carried out on a Shimadzu Nexera XR HPLC coupled with a Shimadzu 8050 triple quadrupole mass spectrometer. LC utilized a Kinetex-core column (Phenomenex): 2.6 um C18 100 A, 100×4.6 mm. HPLC Method: solvents, H2O [0.1% FA]—solvent A; MeOH [0.1% FA]—solvent B; flow rate 1.0 mL/min (utilized Tsplitter, mass spectrometer effective flow rate 0.4 mL/min). Gradient: t=2 min, 5% B; t=6 min, 95% B; t=7.0 min, 95% B; t=7.01, 5% B. Stop time 10 min. Diverter valve was utilized and eluent only averted to MS from 5 min-8 min. Quantity was determined based on the AUC of the internal standard versus the AUC of the analyte peak.
# [2] = test system: CREB phosphorylation at Ser-133; assay: In vivo pharmacodynamics, hippocampal pCREB:tCREB by ELISA; settings: scopolamine treated mice plus 31b 20 or 40 mg/kg ip
# pCREB = pCREB modulation in PC-12 cells (without insult, with OGD, L-NAME); type: cell-based; settings: 31b 25 μM, 48 hr incubation
# Procedure: (§1) FIGS. 3A-3C: Neuroprotection (FIG. 3A), MTT treatment was used to assess cell viability (FIG. 3B), and pCREB modulation (FIG. 3C) of furoxan compounds. Neuroprotection assay workflow: expose PC12 cells to oxygen glucose deprivation (OGD) for 90 min→reoxygenate and add furoxan (1, 10, or 25 μM)→incubate for 24 hr→MTT readout of viability. Data represented as mean and s.e.m. (n=3). *=p<0.05, **=p<0.01, ***=p<0.001 compared to vehicle control using one way ANOVA analysis with Dunnett's post-hoc test. Red dashed line indicates threshold of vehicle effects. For pCREB modulation, 31b (25 μM) was examined (PC-12 cells, 48 hr incubation) in the following: without insult, with OGD, L-NAME.
# PC12 cells = assay: In vitro neuroprotection against oxygen glucose deprivation (OGD), MTT viability readout; type: cell-based; settings: OGD 90 min, reoxygenation, furoxan 1, 10 or 25 μM, 24 hr
# Procedure: as §1
# It has been shown that furoxans are protective against oxygen glucose deprivation (OGD), a commonly used cellular model of ischemic stroke. PC12 cells were submitted to OGD for 90 minutes followed by reoxygenation and treatment with varying concentrations of selected embodiments of compounds of Formula I (indicated in FIG. 3A). After 24 hr, MTT treatment was used to assess cell viability (FIG. 3B). […] It has been shown previously that 4-N-oxides release NO at a much slower rate than corresponding 2-N-oxides.
compound,measurement,setting,value
CC1CCN(Cc2no[n+]([O-])c2-c2ccc(F)cc2)CC1 [31b],Amounts in ip-treated mice compared to oral gavage,[1]; mice,significantly higher amounts in ip-treated mice
same,Levels in plasma and forebrain after 12 h,"[1]; mice, ip and po",detectable levels
same,Oral bioavailability,"[1]; mice, po",low
same,Kp,"[1]; mouse, forebrain versus plasma, other: intraperitoneal (ip) and oral (po), averaged together, mice, read-out: Average B:P ratio (brain versus plasma)",1.6
same,Brain penetration,"[1]; mouse, in vivo",significant brain penetration
same,half-life,"[1]; mouse, plasma and forebrain, intraperitoneal and oral, mice, ip and po, first order exponential decay, read-out: In vivo t1/2 for brain and plasma",0.833 to 1.83 h
same,Hippocampal pCREB:tCREB ratio,[2],trends toward reversal
same,Effects of NOS inhibition on pCREB,pCREB,reverses the effects of NOS inhibition on pCREB
same,Neuroprotection against OGD (cell viability by MTT),PC12 cells,concentration dependent protection; also recorded: outperform the corresponding 2-N-oxides
